Source: paper PMC12656546, “Enterohepatic Recirculation-Mediated Reabsorption of Aristolochic Acid I: Revealed by Toxicokinetics and Metabolite Identification in Rats” (Toxics, 2025)
Values joined by “and” are separate entries in the source; they are usually repeats but may differ in a detail not shown here. Equal entries are not always repeated. Where two headings read alike, the source gives them in different places.

Key:
[1] = Toxicokinetic study of AAI after single oral administration (plasma, UPLC-QQQ-MS/MS, NCA); format: in vivo, F344 rats; details: for tmax / AUC0→t / CL/F / Cmax / Vd / t1/2: individual pooled profiles (animal pairs), Table S4
Description: For toxicokinetic study, forty-eight […] F344 rats (specific pathogen-free grade) were enrolled in the study, with equal numbers of males and females. All rats were purchased from Charles River Laboratory (Raleigh, NC, USA). All rats were confirmed to be healthy based on a series of physical health examinations. Rats were acclimated for 5 days at a temperature of 20–26 °C, humidity of 40–70% and a 12 h light/dark circle. The rats were randomly divided into four groups (n = 12 per group), with equal numbers of males and females in each group. The allocation was performed separately for each sex (female and male) based on body weight using a stratified randomization method. During the experiment, rats were fasted and had access to water ad libitum. To minimize confounding factors, treatments and measurements were randomized within each session. Cages from different groups were evenly distributed across racks in the same room to reduce bias from light and temperature. This study was approved by the Institutional Animal Care and Use Committee (IACUC) of the National Drug Safety Evaluation Center (Approval No. IACUC-2024-K011, 20 September 2024).
During the experiment, each rat received a single oral administration via gastric gavage. Rats in the control group were administered with 0.5% sodium carboxymethyl cellulose (CMC-Na) suspension. For the treatment groups, rats were administered with gavage solution containing 10, 30 and 100 mg/kg of AAI. The gavage solution was prepared by uniformly dispersing the reference standard of AAI in the 0.5% CMC-Na solution. After oral administration, blood samples were collected from the postorbital vein plex of rats and immediately placed in EDTA tubes. To capture potential reabsorption which might occur long after AAI administration, 15 blood sampling time points were established for each dose group. A sparse sampling approach was employed to avoid excessive blood loss in each rat. For each dosage, 12 rats were subdivided into two groups. For the first group, blood samples were collected from 6 rats at 10, 30, 60, 90, 120, 240, 420, and 600 min after AAI administration; for the second group, blood samples were collected from these 6 rats at 12, 14, 16, 18, 20, 22, and 24 h after AAI administration. Therefore, the experimental design ensured that six biological replicates were obtained for each sampling time point, enabling robust toxicokinetic analysis.
Rat plasma samples were prepared as follows: Blood was centrifuged at 13,200 rpm for 10 min. Then, 25 μL of retrieved plasma was transferred to 2 mL centrifuge tubes, followed by the addition of 75 μL of methanol/acetonitrile solution (v/v, 1∶1) containing indomethacin as internal standard (IS). After vortexing for 2 min and centrifugation for 10 min at 13,200 rpm, the supernatant was used as study samples for quantitative analysis. Quality control samples (QCs) and calibration standards were prepared by spiking blank plasma with different concentrations of AAI standard solution. The QCs and calibration standards were processed using identical procedures as the study samples.
A method of ultra-performance liquid chromatography coupled with triple quadrupole tandem mass spectrometry (UPLC-QQQ-MS/MS) was developed to achieve the quantitation of AAI in rat plasma. The LC-MS/MS analysis was performed using an Acquity UPLC I-Class system coupled with an Xevo TQ XS spectrometer (Waters, Milford, MA, USA). An Acquity UPLC BEH C18 column (2.1 mm × 50 mm, 1.7 μm, Waters, Milford, MA, USA) was employed for chromatographic separation. The mobile phases consisted of water containing 5 mmol/L ammonium formate/0.1% formic acid (A) and acetonitrile (B). The gradient elution was set as follows: 1–4 min, 10–90% B; 4–5 min, 90% B; 5–5.01 min, 90–10% B; 5.01–7 min, 10% B. The flow rate was set at 0.4 mL/min. The column temperature was maintained at 40 °C. A sample volume of 2 μL was injected for analysis. […]

[2] = tested on: Caco-2 monolayers; details: cited from earlier work
[3] = nine months after a single administration of AAI, cited from earlier work
[4] = medium-dose (30 mg/kg), 30 mg/kg
[5] = oral dose from 30 mg/kg to 100 mg/kg (3.33-fold)

COc1cccc2c1cc([N+](=O)[O-])c1c(C(=O)O)cc3c(c12)OCO3 [AAI, Aristolochic acid I]
tmax ([1]; high-dose (100 mg/kg), 100 mg/kg): 1.00 h
sex-dependent difference in systemic exposure ([1]; high-dose and medium-dose groups, female vs male rats): female rats exhibited higher systemic exposure compared to males
AAI plasma concentration ([1]; low-dose (10 mg/kg oral), 18 h, individual rats M104,M105,M106,F104,F105,F106, below LLOQ set to zero): 0.00 ng/mL
AAI plasma concentration ([1]; low-dose (10 mg/kg oral), 20 h, individual rats M104,M105,M106,F104,F105,F106, below LLOQ set to zero): 0.00 ng/mL
AAI plasma concentration ([1]; low-dose (10 mg/kg oral), 22 h, individual rats M104,M105,M106,F104,F105,F106, below LLOQ set to zero): 0.00 ng/mL
AAI plasma concentration ([1]; low-dose (10 mg/kg oral), 24 h, individual rats M104,M105,M106,F104,F105,F106, below LLOQ set to zero): 0.00 ng/mL
AUC0→t ([1]; low-dose (10 mg/kg), 10 mg/kg): 1221.57 ng·h/mL and 1055.94 ng·h/mL and 876.13 ng·h/mL and 990.96 ng·h/mL
CL/F ([1]; low-dose (10 mg/kg), 10 mg/kg): 1.53 L/h and 1.06 L/h and 1.82 L/h and 1.98 L/h and 1.38 L/h and 2.17 L/h
Cmax ([1]; low-dose (10 mg/kg), 10 mg/kg): 361.73 ng/mL and 436.18 ng/mL and 640.11 ng/mL and 496.76 ng/mL and 247.55 ng/mL
Vd ([1]; low-dose (10 mg/kg), 10 mg/kg): 2.67 L and 1.53 L and 3.03 L and 4.74 L and 1.21 L and 6.96 L
t1/2 ([1]; low-dose (10 mg/kg), 10 mg/kg): 1.00 h and 1.15 h and 1.66 h and 0.61 h and 1.21 h and 2.23 h
tmax ([1]; low-dose (10 mg/kg), 10 mg/kg): 0.17 h
AAI plasma concentration ([1]; medium-dose (30 mg/kg oral), 0.167 h, individual rats M201,M202,M203,F201,F202,F203, 30 mg/kg): 677.97 ng/mL and 891.85 ng/mL and 775.45 ng/mL and 694.87 ng/mL and 747.04 ng/mL and 424.53 ng/mL
AAI plasma concentration ([1]; medium-dose (30 mg/kg oral), 0.5 h, individual rats M201,M202,M203,F201,F202,F203, 30 mg/kg): 2114.14 ng/mL and 2496.11 ng/mL and 2604.27 ng/mL and 3133.29 ng/mL and 2919.69 ng/mL and 1424.98 ng/mL
AAI plasma concentration ([1]; medium-dose (30 mg/kg oral), 1 h, individual rats M201,M202,M203,F201,F202,F203, 30 mg/kg): 1312.37 ng/mL and 2360.84 ng/mL and 2630.67 ng/mL and 814.02 ng/mL and 1128.36 ng/mL and 777.08 ng/mL
AAI plasma concentration ([1]; medium-dose (30 mg/kg oral), 1.5 h, individual rats M201,M202,M203,F201,F202,F203, 30 mg/kg): 508.51 ng/mL and 594.78 ng/mL and 649.03 ng/mL and 685.24 ng/mL and 712.70 ng/mL
AAI plasma concentration ([1]; medium-dose (30 mg/kg oral), 2 h, individual rats M201,M202,M203,F201,F202,F203, 30 mg/kg): 634.01 ng/mL and 354.12 ng/mL and 602.07 ng/mL and 438.37 ng/mL and 724.22 ng/mL and 539.10 ng/mL
AAI plasma concentration ([1]; medium-dose (30 mg/kg oral), 4 h, individual rats M201,M202,M203,F201,F202,F203, 30 mg/kg): 90.61 ng/mL and 161.84 ng/mL and 196.08 ng/mL and 93.85 ng/mL and 264.87 ng/mL and 468.11 ng/mL
AAI plasma concentration ([1]; medium-dose (30 mg/kg oral), 7 h, individual rats M201,M202,M203,F201,F202,F203, 30 mg/kg): 72.74 ng/mL and 83.75 ng/mL and 104.71 ng/mL and 69.29 ng/mL and 131.52 ng/mL and 64.74 ng/mL
AAI plasma concentration ([1]; medium-dose (30 mg/kg oral), 10 h, individual rats M201,M202,M203,F201,F202,F203, 30 mg/kg): 26.96 ng/mL and 52.18 ng/mL and 50.62 ng/mL and 70.78 ng/mL and 76.59 ng/mL and 58.20 ng/mL
AAI plasma concentration ([1]; medium-dose (30 mg/kg oral), 12 h, individual rats M204,M205,M206,F204,F205,F206, 30 mg/kg): 1.92 ng/mL and 6.45 ng/mL and 1.24 ng/mL and 2.81 ng/mL and 3.93 ng/mL and 3.49 ng/mL
AAI plasma concentration ([1]; medium-dose (30 mg/kg oral), 14 h, individual rats M204,M205,M206,F204,F205,F206, 30 mg/kg): 2.74 ng/mL and 3.87 ng/mL and 2.17 ng/mL and 2.87 ng/mL
AAI plasma concentration ([1]; medium-dose (30 mg/kg oral), 16 h, individual rats M204,M205,M206,F204,F205,F206, 30 mg/kg): 0.61 ng/mL and 2.32 ng/mL and 0.38 ng/mL and 4.36 ng/mL and 5.23 ng/mL and 10.35 ng/mL
AAI plasma concentration ([1]; medium-dose (30 mg/kg oral), 18 h, individual rats M204,M205,M206,F204,F205,F206, 30 mg/kg): 0.83 ng/mL and 5.49 ng/mL and 0.29 ng/mL and 6.28 ng/mL and 4.31 ng/mL and 13.62 ng/mL
AAI plasma concentration ([1]; medium-dose (30 mg/kg oral), 20 h, individual rats M204,M205,M206,F204,F205,F206, 30 mg/kg): 0.91 ng/mL and 3.14 ng/mL and 0.30 ng/mL and 7.63 ng/mL and 13.88 ng/mL and 9.00 ng/mL
AAI plasma concentration ([1]; medium-dose (30 mg/kg oral), 22 h, individual rats M204,M205,M206,F204,F205,F206, 30 mg/kg): 0.40 ng/mL and 4.38 ng/mL and 0.15 ng/mL and 6.11 ng/mL and 48.38 ng/mL and 35.23 ng/mL
AAI plasma concentration ([1]; medium-dose (30 mg/kg oral), 24 h, individual rats M204,M205,M206,F204,F205,F206, 30 mg/kg): 0.23 ng/mL and 8.71 ng/mL
AUC0→t [1, 4]: 4703.09 ng·h/mL and 3783.95 ng·h/mL and 3228.59 ng·h/mL and 3983.95 ng·h/mL and 4581.00 ng·h/mL
CL/F [1, 4]: 1.18 L/h and 0.80 L/h and 1.03 L/h and 1.79 L/h and 1.32 L/h and 1.20 L/h
Cmax [1, 4]: 2919.69 ng/mL and 1424.98 ng/mL and 2114.14 ng/mL and 2496.11 ng/mL and 2630.67 ng/mL and 3133.29 ng/mL
Vd [1, 4]: 5.23 L and 4.46 L and 4.94 L and 5.21 L (2×) and 2.97 L
t1/2 [1, 4]: 3.85 h and 3.33 h and 2.02 h and 2.73 h and 1.71 h and 3.08 h
tmax [1, 4]: 1.00 h
fold increase in AUC0→t [1, 5]: 4.3 fold
fold increase in Cmax [1, 5]: 3.7 fold
passive diffusion ability across Caco-2 monolayers [2]: moderate passive diffusion ability
mice developing liver cancer ([3]; female mice): 41.67%
mice developing liver cancer ([3]; male mice): 78.57%
